Experimental data as given in ChEMBL document CHEMBL1140954, “Syntheses and cytotoxicities of the analogues of the taxoid brevifoliol” (Eur J Med Chem, 2008).
≈ marks a conversion by molar mass, not a printed value.

What was measured:
[1] = system: KB; test: Cytotoxicity against human KB cells after 48 hrs by MTT assay; assay type: functional, cell-based
[2] = system: MCF7; test: Cytotoxicity against human MCF7 cells after 48 hrs by MTT assay; assay type: functional, cell-based; settings: MCF7, 48 h
[3] = (§1) Cytotoxicity against human Caco-2 cells after 48 hrs by MTT assay; assay type: cell-based; settings: human, Caco-2 cells
[4] = system: Caco-2; test: as §1; assay type: cell-based; settings: Homo sapiens, Caco-2, 48 h
[5] = system: HepG2; test: Cytotoxicity against human HepG2 cells after 48 hrs by MTT assay; assay type: functional, cell-based; settings: HepG2, 48 h

Structure (SMILES)	IC50 [1] [µg/mL]	IC90 [1] [µg/mL]	IC50 [2] [µg/mL]	IC90 [2] [µg/mL]	IC90 at 48 h [3] [µg/mL]	IC50 [4] [µg/mL]	IC50 [5] [µg/mL]	IC90 [5] [µg/mL]
C=C1[C@H]2C[C@]3(C(C)(C)O)C[C@H](OC(=O)[C@H](O)[C@@H](NC(=O)OC(C)(C)C)c4ccccc4)C(C)=C3[C@@H](OC(=O)c3ccccc3)[C@H](OC(C)=O)[C@]2(C)[C@@H](OC(C)=O)C[C@@H]1O	100 (≈ 122 µM)	100 (≈ 122 µM)	48.3 (≈ 58.9 µM)	68.3 (≈ 83.3 µM)	100 (≈ 122 µM)	100 (≈ 122 µM)	78.3 (≈ 95.5 µM)	91.6 (≈ 112 µM)
C=C1[C@@H](OC(=O)[C@H](O)[C@@H](NC(=O)OC(C)(C)C)c2ccccc2)C[C@H](OC(C)=O)[C@]2(C)[C@@H]1C[C@]1(C(C)(C)O)CC(=O)C(C)=C1[C@@H](OC(=O)c1ccccc1)[C@@H]2OC(C)=O	100 (≈ 122 µM)	100 (≈ 122 µM)	8.5 (≈ 10.4 µM)	43.3 (≈ 53 µM)	100 (≈ 122 µM)	100 (≈ 122 µM)	0.065 (≈ 0.0795 µM)	5.33 (≈ 6.52 µM)
C=C1[C@@H](OC(=O)[C@H](O)[C@@H](NC(=O)OC(C)(C)C)c2ccccc2)C[C@H](OC(C)=O)[C@]2(C)[C@@H]1C[C@]1(C(C)(C)O)C[C@H](O)C(C)=C1[C@@H](OC(=O)c1ccccc1)[C@@H]2OC(C)=O	100 (≈ 122 µM)	100 (≈ 122 µM)	33.3 (≈ 40.6 µM)	55 (≈ 67.1 µM)	100 (≈ 122 µM)	100 (≈ 122 µM)	100 (≈ 122 µM)	100 (≈ 122 µM)
C=C1[C@@H](OC(=O)[C@H](O)[C@@H](NC(=O)OC(C)(C)C)c2ccccc2)C[C@H](OC(C)=O)[C@@]2(C)[C@@H](OC(C)=O)[C@H](OC(=O)c3ccccc3)C3=C(C)C(=O)C[C@@]3(C(C)(C)O)[C@@H](OC(C)=O)[C@H]12	0.105 (≈ 0.12 µM)	5.33 (≈ 6.08 µM)	100 (≈ 114 µM)	100 (≈ 114 µM)	100 (≈ 114 µM)	100 (≈ 114 µM)	100 (≈ 114 µM)	100 (≈ 114 µM)
C=C1[C@@H](OC(=O)[C@H](O)[C@@H](NC(=O)OC(C)(C)C)c2ccccc2)C[C@H](OC(C)=O)[C@]2(C)[C@@H]1C[C@]1(C(C)(C)O)C[C@H](OC(=O)C(O)C(NC(=O)OC(C)(C)C)c3ccccc3)C(C)=C1[C@@H](OC(=O)c1ccccc1)[C@@H]2OC(C)=O (stereo partly specified)	2.73 (≈ 2.52 µM)	33.3 (≈ 30.7 µM)	100 (≈ 92.3 µM)	100 (≈ 92.3 µM)	100 (≈ 92.3 µM)	100 (≈ 92.3 µM)	96.6 (≈ 89.2 µM)	100 (≈ 92.3 µM)
C=C1[C@H]2C[C@]3(C(C)(C)O)CC(=O)C(C)=C3[C@@H](OC(=O)c3ccccc3)[C@H](OC(C)=O)[C@]2(C)[C@@H](OC(C)=O)C[C@@H]1O	0.0078 (≈ 0.0141 µM)	1.13 (≈ 2.04 µM)	5.33 (≈ 9.61 µM)	22.6 (≈ 40.7 µM)	21 (≈ 37.9 µM)	0.008 (≈ 0.0144 µM)	100 (≈ 180 µM)	100 (≈ 180 µM)
C=C1[C@@H](O)C[C@H](OC(C)=O)[C@@]2(C)[C@@H](OC(C)=O)[C@H](OC(=O)c3ccccc3)C3=C(C)C(=O)C[C@@]3(C(C)(C)O)[C@@H](OC(C)=O)[C@H]12 [13-OXO-TAXCHININ A]	100 (≈ 163 µM)	100 (≈ 163 µM)	100 (≈ 163 µM)	100 (≈ 163 µM)	100 (≈ 163 µM)	100 (≈ 163 µM)	96.6 (≈ 158 µM)	100 (≈ 163 µM)
C=C1[C@H]2C[C@]3(C(C)(C)O)C[C@H](O)C(C)=C3[C@@H](OC(=O)c3ccccc3)[C@H](OC(C)=O)[C@]2(C)[C@@H](OC(C)=O)C[C@@H]1O [BREVIFOLIOL]	0.0031 (≈ 0.00557 µM)	0.6 (≈ 1.08 µM)	0.86 (≈ 1.54 µM)	6.16 (≈ 11.1 µM)	1.32 (≈ 2.37 µM)	0.0025 (≈ 0.00449 µM)	0.055 (≈ 0.0988 µM)	1.13 (≈ 2.03 µM)
CC(=O)O[C@H]1C(=O)[C@@]2(C)[C@H]([C@H](OC(=O)c3ccccc3)[C@]3(O)C[C@H](OC(=O)[C@H](O)[C@@H](NC(=O)c4ccccc4)c4ccccc4)C(C)=C1C3(C)C)[C@]1(OC(C)=O)CO[C@@H]1C[C@@H]2O [PACLITAXEL]		0.048 (≈ 0.0562 µM)		0.86 (≈ 1.01 µM)	0.065 (≈ 0.0761 µM)			1.13 (≈ 1.32 µM)
C=C1[C@@H](O)C[C@H](OC(C)=O)[C@@]2(C)[C@@H](OC(C)=O)[C@H](OC(=O)c3ccccc3)C3=C(C)[C@@H](O)C[C@@]3(C(C)(C)O)[C@@H](OC(C)=O)[C@H]12 [TAXCHININ A]	0.316 (≈ 0.514 µM)	7.5 (≈ 12.2 µM)	58.3 (≈ 94.8 µM)	91.6 (≈ 149 µM)	21 (≈ 34.2 µM)	6.16 (≈ 10 µM)	96.6 (≈ 157 µM)	100 (≈ 163 µM)
